Laboratory results reported in ChEMBL document CHEMBL4138174, “Design and synthesis of novel C14-urea-tetrandrine derivatives with potent anti-cancer activity” (Eur J Med Chem, 2018).

Legend:
Format in all cases: functional, cell-based
HEL = assay: Cytotoxicity against human HEL cells assessed as reduction in cell viability after 48 hrs by MTT assay
K562 = assay: Cytotoxicity against human K562 cells assessed as reduction in cell viability after 48 hrs by MTT assay
MDA-MB-231 = assay: Cytotoxicity against human MDA-MB-231 cells assessed as reduction in cell viability after 48 hrs by MTT assay
PC-3 = assay: Cytotoxicity against human PC3 cells assessed as reduction in cell viability after 48 hrs by MTT assay
[1] = Cytotoxicity against human WM9 cells assessed as reduction in cell viability after 48 hrs by MTT assay

Structure (SMILES)	IC50 (HEL; Homo sapiens, HEL, 48 h) [µM]	IC50 (K562; Homo sapiens, K562, 48 h) [µM]	IC50 (MDA-MB-231; Homo sapiens, MDA-MB-231, 48 h) [µM]	IC50 (PC-3; Homo sapiens, PC-3, 48 h) [µM]	IC50 ([1]; Homo sapiens, WM9, 48 h) [µM]	IC50 (HEL; hel) [µM]	IC50 (K562; k562) [µM]	IC50 (MDA-MB-231; mda-mb-231) [µM]	IC50 (PC-3; pc-3) [µM]	IC50 [1] [µM]
COc1cc(NC(=O)NC2CCCC2)c2cc1Oc1ccc(cc1)C[C@H]1c3cc(c(OC)cc3CCN1C)Oc1c(OC)c(OC)cc3c1[C@H](C2)N(C)CC3	11.6	6.42	13.2	1.76	6.45	–	–	–	–	–
COc1cc(NC(=O)NC(C)(C)C)c2cc1Oc1ccc(cc1)C[C@H]1c3cc(c(OC)cc3CCN1C)Oc1c(OC)c(OC)cc3c1[C@H](C2)N(C)CC3	11.9	4.89	12.6	2.97	5.37	–	–	–	–	–
COc1cc(NC(=S)NC(C)C)c2cc1Oc1ccc(cc1)C[C@H]1c3cc(c(OC)cc3CCN1C)Oc1c(OC)c(OC)cc3c1[C@H](C2)N(C)CC3	4.22	3.19	5.57	2.1	3.63	–	–	–	–	–
COc1cc(NC(=O)Nc2cccc(Cl)c2)c2cc1Oc1ccc(cc1)C[C@H]1c3cc(c(OC)cc3CCN1C)Oc1c(OC)c(OC)cc3c1[C@H](C2)N(C)CC3	6.47	2.02	9.06	4.54	3.16	–	–	–	–	–
COc1cc(NC(=S)Nc2ccc(C)cc2)c2cc1Oc1ccc(cc1)C[C@H]1c3cc(c(OC)cc3CCN1C)Oc1c(OC)c(OC)cc3c1[C@H](C2)N(C)CC3	6.04	2.23	3.61	5.36	5.52	–	–	–	–	–
CCCNC(=O)Nc1cc(OC)c2cc1C[C@H]1c3c(cc(OC)c(OC)c3Oc3cc4c(cc3OC)CCN(C)[C@H]4Cc3ccc(cc3)O2)CCN1C	4.79	5.09	6.31	0.73	4.83	–	–	–	–	–
COc1ccc2cc1Oc1ccc(cc1)C[C@H]1c3cc(c(OC)cc3CCN1C)Oc1c(OC)c(OC)cc3c1[C@H](C2)N(C)CC3	–	–	–	–	–	10.1	8.87	13.6	4.45	7.39
COc1cc(NC(=O)N2CCOCC2)c2cc1Oc1ccc(cc1)C[C@H]1c3cc(c(OC)cc3CCN1C)Oc1c(OC)c(OC)cc3c1[C@H](C2)N(C)CC3	4.67	4.33	7.29	3.78	5.54	–	–	–	–	–
CCCCNC(=O)Nc1cc(OC)c2cc1C[C@H]1c3c(cc(OC)c(OC)c3Oc3cc4c(cc3OC)CCN(C)[C@H]4Cc3ccc(cc3)O2)CCN1C	4.53	–	5.4	0.88	5.12	–	6.88	–	–	–
COc1cc(NC(=O)Nc2cccc3ccccc23)c2cc1Oc1ccc(cc1)C[C@H]1c3cc(c(OC)cc3CCN1C)Oc1c(OC)c(OC)cc3c1[C@H](C2)N(C)CC3	5.21	1.97	4.61	1.31	3.93	–	–	–	–	–
COc1ccc(NC(=S)Nc2cc(OC)c3cc2C[C@H]2c4c(cc(OC)c(OC)c4Oc4cc5c(cc4OC)CCN(C)[C@H]5Cc4ccc(cc4)O3)CCN2C)cc1	7.38	2.69	7.4	5.27	5.4	–	–	–	–	–
COc1cc(NC(=O)NCc2ccccc2)c2cc1Oc1ccc(cc1)C[C@H]1c3cc(c(OC)cc3CCN1C)Oc1c(OC)c(OC)cc3c1[C@H](C2)N(C)CC3	8.02	4.59	6.99	5.73	6.14	–	–	–	–	–
COc1cc(NC(=O)Nc2ccc([N+](=O)[O-])cc2)c2cc1Oc1ccc(cc1)C[C@H]1c3cc(c(OC)cc3CCN1C)Oc1c(OC)c(OC)cc3c1[C@H](C2)N(C)CC3	6.54	1.84	5.12	6.85	4.65	–	–	–	–	–
